Measured values from US8034940B2, “Modulators of glucocorticoid receptor, AP-1, and/or NF-κB activity and use thereof” (Bristol-Myers Squibb Company, priority 2006, dated 2011).

target: T1, human full-length glucocorticoid receptor (Homo sapiens, UniProt P04150); experiment: Glucocorticoid Receptor Binding Assay (I), fluorescence polarization, Fluormone GS Red; parameters: purified human recombinant full-length glucocorticoid receptor; purchased Invitrogen Part #2893; details: GR Binding Assay (I); read-out: GR (Ki, nM) (GR Binding Assay (I))
T1 sequence (P04150 1-777): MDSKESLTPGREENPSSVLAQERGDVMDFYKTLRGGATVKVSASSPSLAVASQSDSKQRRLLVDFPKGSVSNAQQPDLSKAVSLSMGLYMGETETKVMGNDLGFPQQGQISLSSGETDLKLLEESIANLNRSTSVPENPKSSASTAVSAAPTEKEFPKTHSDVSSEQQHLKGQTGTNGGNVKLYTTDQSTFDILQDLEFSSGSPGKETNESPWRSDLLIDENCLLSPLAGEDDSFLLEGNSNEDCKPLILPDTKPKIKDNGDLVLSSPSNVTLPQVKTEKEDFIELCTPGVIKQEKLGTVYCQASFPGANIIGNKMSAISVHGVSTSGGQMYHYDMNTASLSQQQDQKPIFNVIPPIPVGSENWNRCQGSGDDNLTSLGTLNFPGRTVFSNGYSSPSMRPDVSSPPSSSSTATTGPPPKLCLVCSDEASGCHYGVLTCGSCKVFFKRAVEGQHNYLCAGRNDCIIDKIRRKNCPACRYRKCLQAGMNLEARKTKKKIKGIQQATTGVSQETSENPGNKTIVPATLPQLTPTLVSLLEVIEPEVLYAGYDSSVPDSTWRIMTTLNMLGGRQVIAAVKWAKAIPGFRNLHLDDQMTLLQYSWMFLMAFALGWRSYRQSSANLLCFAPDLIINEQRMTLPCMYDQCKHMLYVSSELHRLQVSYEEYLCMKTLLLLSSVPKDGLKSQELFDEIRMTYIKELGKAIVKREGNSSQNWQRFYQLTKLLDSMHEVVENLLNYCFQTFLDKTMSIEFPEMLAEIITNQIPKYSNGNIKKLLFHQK
Procedure: Glucocorticoid Receptor Binding Assay (I)^a
Briefly, purified human recombinant full-length glucocorticoid receptor (2 nM) was mixed with fluorescently labeled glucocorticoid (1 nM Fluormone GS Red) in the presence or absence of test compound. After two hour incubation at room temperature in the dark, the fluorescence polarization (FP) of the samples was measured. […] Test compounds were analyzed in the concentration range from 8.5E-05 μM to 5 μM.

Row | Compound | Ki
1 | CC(C)(C(=O)Nc1nncs1)[C@H]1c2ccccc2Oc2nc(-c3ccc(C(=O)N4CCC[C@@H](O)C4)cc3)ccc21 [Example 284] | 17.4 nM
2 | CC(C)(C(=O)Nc1nncs1)[C@H]1c2ccccc2Oc2nc(-c3ccc(C(=O)N4CCNC(=O)C4)cc3)ccc21 [Example 296] | 19.1 nM
3 | CN1CCCN(C(=O)c2ccc(-c3ccc4c(n3)Oc3ccccc3[C@@H]4C(C)(C)C(=O)Nc3nncs3)cc2)CC1 [Example 297] | > 1150 nM
4 | CN(CCOC(C)(C)C)C(=O)c1ccc(-c2ccc3c(n2)Oc2ccccc2[C@@H]3C(C)(C)C(=O)Nc2nncs2)cc1 [Example 302] | 126 nM
5 | CN(C(=O)c1ccc(-c2ccc3c(n2)Oc2ccccc2[C@@H]3C(C)(C)C(=O)Nc2nncs2)cc1)C1CCS(=O)(=O)C1 (stereo partly shown) [Example 313] | 4.65 nM
6 | CC(C)CC1CCCN1C(=O)c1ccc(-c2ccc3c(n2)Oc2ccccc2[C@@H]3C(C)(C)C(=O)Nc2nncs2)cc1 (stereo partly shown) [Example 317] | 23.7 nM
7 | CNC(=O)C1CCN(C(=O)c2ccc(-c3ccc4c(n3)Oc3ccccc3[C@@H]4C(C)(C)C(=O)Nc3nncs3)cc2)CC1 [Example 321] | 30.6 nM
8 | CC(C)(C(=O)Nc1nncs1)[C@H]1c2ccccc2Oc2nc(-c3ccc(C(=O)N4CCCOCC4)cc3)ccc21 [Example 323] | 3.69 nM
9 | COc1cc(-c2ccc3c(n2)Oc2ccccc2[C@@H]3C(C)(C)C(=O)Nc2nncs2)ccc1C(=O)N(C)C [Example 347] | 5.63 nM
10 | CC(C)(C(=O)Nc1nncs1)[C@H]1c2ccccc2Oc2nc(-c3ccc(C(=O)NC4CCCC4)cc3)ccc21 [Example 351] | 147 nM
11 | CC(C)NC(=O)c1ccc(-c2ccc3c(n2)Oc2ccccc2[C@@H]3C(C)(C)C(=O)Nc2nncs2)cc1 [Example 353] | 13 nM
12 | COCCNC(=O)c1ccc(-c2ccc3c(n2)Oc2ccccc2[C@@H]3C(C)(C)C(=O)Nc2nncs2)cc1 [Example 355] | 19.6 nM
13 | CCCNC(=O)c1ccc(-c2ccc3c(n2)Oc2ccccc2[C@@H]3C(C)(C)C(=O)Nc2nncs2)cc1 [Example 358] | 40.5 nM
14 | CNC(=O)c1ccc(-c2ccc3c(n2)Oc2ccccc2[C@@H]3C(C)(C)C(=O)Nc2nncs2)cc1OC [Example 361] | 14.6 nM
15 | CN(C)C(=O)c1ccc(-c2ccc3c(n2)Oc2ccccc2C3C(C)(C)C(=O)NC(C)(C)C)cc1 (stereo not shown) [Example 362] | 805 nM
16 | CC(C)(C(=O)Nc1nncs1)[C@H]1c2ccccc2Oc2nc(C#N)ccc21 [Example 395] | 1.19 nM
17 | CC(C)(C(=O)Nc1nncs1)[C@H]1c2ccccc2Oc2nc(C(=O)NCc3ccccc3)ccc21 [Example 396] | 10.6 nM
18 | CC(=O)c1ccc2c(n1)Oc1ccccc1[C@@H]2C(C)(C)C(=O)Nc1nncs1 [Example 397] | 40.9 nM
19 | CN(C)C(=O)CNC(=O)Nc1ccc2c(n1)Oc1ccccc1[C@@H]2C(C)(C)C(=O)Nc1nncs1 [Example 402] | 699 nM
20 | Cc1ccn(-c2ccc3c(n2)Oc2ccccc2[C@@H]3C(C)(C)C(=O)Nc2nncs2)c(=O)c1 [Example 405] | 424 nM
21 | CC(C)(C)OC(=O)N1CC=C(c2ccc3c(n2)Oc2ccccc2[C@@H]3C(C)(C)C(=O)Nc2nncs2)CC1 [Example 406] | 176 nM
22 | CC(C)(C(=O)Nc1nncs1)[C@H]1c2ccccc2Oc2nc(C3=CCNCC3)ccc21 [Example 407] | 958 nM
23 | CC(C)C(=O)N1CC=C(c2ccc3c(n2)Oc2ccccc2[C@@H]3C(C)(C)C(=O)Nc2nncs2)CC1 [Example 409] | 78.2 nM
24 | CC(C)(C(=O)Nc1nnc(C(F)(F)F)s1)[C@H]1c2ccccc2Oc2nc(-c3ccc(C(=O)N4CCCC4)c(F)c3)ccc21 [Example 412] | 22.3 nM
25 | CC(C)(C(=O)NC1=NC(=O)CS1)[C@H]1c2ccccc2Oc2nc(-c3ccc(C(=O)N4CCCC4)c(F)c3)ccc21 [Example 413] | 37.7 nM

Second part, the compound after the results:

Row | Ki | Compound
26 | 13.4 nM | CC(C)(C(=O)Nc1nncs1)[C@H]1c2ccccc2Oc2nc(-c3ccc(C(=O)N4CCC[C@H]4C(N)=O)cc3)ccc21 [Example 282]
27 | 16.8 nM | CC(C)(C(=O)Nc1nncs1)[C@H]1c2ccccc2Oc2nc(-c3ccc(C(=O)N4CCCC(F)(F)C4)cc3)ccc21 [Example 287]
28 | 10.8 nM | CCCCN(C)C(=O)c1ccc(-c2ccc3c(n2)Oc2ccccc2[C@@H]3C(C)(C)C(=O)Nc2nncs2)cc1 [Example 292]
29 | 13.3 nM | CN(CCc1ccccn1)C(=O)c1ccc(-c2ccc3c(n2)Oc2ccccc2[C@@H]3C(C)(C)C(=O)Nc2nncs2)cc1 [Example 299]
30 | 149 nM | CC(C)(C(=O)Nc1nncs1)[C@H]1c2ccccc2Oc2nc(-c3ccc(C(=O)N(CCO)CCO)cc3)ccc21 [Example 304]
31 | 313 nM | CN(C)[C@H]1CCN(C(=O)c2ccc(-c3ccc4c(n3)Oc3ccccc3[C@@H]4C(C)(C)C(=O)Nc3nncs3)cc2)C1 [Example 308]
32 | 25.8 nM | CC(C)(C(=O)Nc1nncs1)[C@H]1c2ccccc2Oc2nc(-c3ccc(C(=O)N4CCNC(=O)CC4)cc3)ccc21 [Example 311]
33 | 110 nM | CN(C)C(=O)CN(C)C(=O)c1ccc(-c2ccc3c(n2)Oc2ccccc2[C@@H]3C(C)(C)C(=O)Nc2nncs2)cc1 [Example 319]
34 | 13.1 nM | CCN(CCO)C(=O)c1ccc(-c2ccc3c(n2)Oc2ccccc2[C@@H]3C(C)(C)C(=O)Nc2nncs2)cc1 [Example 320]
35 | 18.9 nM | CC(C)(C(=O)Nc1nncs1)[C@H]1c2ccccc2Oc2nc(-c3ccc(C(=O)N4CCCC(=O)CC4)cc3)ccc21 [Example 322]
36 | 10.5 nM | CN(CCC#N)C(=O)c1ccc(-c2ccc3c(n2)Oc2ccccc2[C@@H]3C(C)(C)C(=O)Nc2nncs2)cc1F [Example 326]
37 | 312 nM | CN(CC(=O)O)C(=O)c1ccc(-c2ccc3c(n2)Oc2ccccc2[C@@H]3C(C)(C)C(=O)Nc2nncs2)cc1 [Example 338]
38 | 3.04 nM | CCCN(C)C(=O)c1ccc(-c2ccc3c(n2)Oc2ccccc2[C@@H]3C(C)(C)C(=O)Nc2nncs2)cc1Cl [Example 346]
39 | 42.1 nM | CC(C)(C)NC(=O)c1ccc(-c2ccc3c(n2)Oc2ccccc2[C@@H]3C(C)(C)C(=O)Nc2nncs2)cc1 [Example 352]
40 | 30.1 nM | CC(C)(C(=O)Nc1nncs1)[C@H]1c2ccccc2Oc2nc(-c3ccc(C(=O)NCCCO)cc3)ccc21 [Example 359]
41 | 154 nM | CC(C)(C(=O)Nc1nncs1)[C@H]1c2ccccc2Oc2nc(-c3ccc(C(=O)N[C@H]4CCC[C@H]4C(N)=O)cc3)ccc21 [Example 360]
42 | 18.3 nM | Cc1nc(NC(=O)C(C)(C)C2c3ccccc3Oc3nc(-c4ccc(C(=O)N(C)C)cc4)ccc32)sc1C (stereo not shown) [Example 365]
43 | 200 nM | CN(C)C(=O)c1ccc(-c2ccc3c(n2)Oc2ccccc2C3C(C)(C)C(=O)Nc2ccn(C)n2)cc1 (stereo not shown) [Example 366]
44 | 692 nM | CN(C)C(=O)c1ccc(-c2ccc3c(n2)Oc2ccccc2C3C(C)(C)C(=O)NCC(F)(F)F)cc1 (stereo not shown) [Example 367]
45 | 37.3 nM | CC(C)(C(=O)Nc1nncs1)[C@H]1c2ccccc2Oc2nc(N3CCN(C(=O)N4CCCC4)CC3)ccc21 [Example 400]
46 | 61.2 nM | CC(C)(C(=O)Nc1nncs1)[C@H]1c2ccccc2Oc2nc(N3CCC(C(=O)N4CCCC4)CC3)ccc21 [Example 403]
47 | 589 nM | CC(C)(C(=O)Nc1cnns1)[C@H]1c2ccccc2Oc2nc(-c3ccc(C(=O)N4CCCC4)c(F)c3)ccc21 [Example 414]
48 | 64.1 nM | CC(=O)NC(C)(C)c1ccc(-c2ccc3c(n2)Oc2ccccc2[C@@H]3C(C)(C)C(=O)Nc2nncs2)cc1 [Example 415]
49 | 94.5 nM | CC(C)(N)c1ccc(-c2ccc3c(n2)Oc2ccccc2[C@@H]3C(C)(C)C(=O)Nc2nncs2)cc1 [Example 416]
